# Test results: patent US20250144069A1, “BILOBALIDE DERIVATIVE COMPOUNDS FOR TREATING NEUROLOGICAL DISEASES AND CANCERS” (The Chinese University of Hong Kong, priority 2023, published 2025)
# Where two headings read alike, the source gives them in different places.
# Tests used:
# Assay type in all cases: cell-based, human
# [1] = Single-dose CCK-8 cell viability screening (adherent cells); details: Homo sapiens, average of A549 and Jurkat % viability, 50 uM, 48 h
# Experimental: (§1) In this example, the anti-cancer properties of the BB analogues described in Table 1d were evaluated. Single-dose screening approach is used for initial testing to assess the cytotoxic effect of the BB analogues (also referred to as ‘BB compounds’) on Jurkat cells (human T cell leukaemia cells) and A549 cells (human lung cancer cells).
# (§2) Method for Adherent Cells (A549 Cells)
# (§3) In this example, 5000 cells/100 uL were seeded in 96-well plates and incubate at 37° C.+5% CO2 overnight. Media were replaced with 100 uL of 50 uM compound per well in 6 replicates. The following controls were prepared.
# (§4) Blank control: 100 uL 0.1% DMSO in media with no cells per well.
# (§5) Positive control: 100 uL of 10 uM 5-flurouracil per well.
# (§6) Negative control: 100 uL of 0.1% DMSO in media per well.
# (§7) Each 96-well plate included 7 compounds and the complete set of controls (in 6 replicates).
# (§8) Cells were incubated at 37° C.+5% CO2 for 46 hours. 10 uL of CCK8 solution was added to each well. Cells were then incubated at 37° C.+5% CO2 for 2 hours. Absorbance at 450 nm was measured using a multiplate reader.
# (§9) Viability was calculated using the equation: […]
# (§10) The benchmark in Table 2 was used to define the activities of each compound.
# A549 cells = assay: as above; details: Homo sapiens, A549, 48 h, read-out: % Viability (50 uM, 48 h) A549
# Experimental: as §1, §2, §3, §4, §5, §6, §7, §8, §9, §10
# Jurkat cells = assay: Single-dose CCK-8 cell viability screening (suspension cells); details: Homo sapiens, Jurkat, 48 h
# Experimental: as §1
# Method for Suspension Cells (Jurkat Cells)
# 5000 cells/90 uL were seeded in 96-well plates. 10 uL of 500 uM compound (10×) was added to each well in 6 replicates. The following controls were prepared.
# Blank control: 10 uL 1% DMSO in media with no cells per well.
# Positive control: 10 uL of 100 uM 5-flurouracil (10×) per well.
# Negative control: 10 uL of 1% DMSO in media (10×) per well.
# Each 96-well plate included 7 BB analogues and the complete set of controls (in 6 replicates).
# as §8, §9, §10
# [2] = Jurkat cells, 50 uM, CCK-8, read-out: % Viability (50 uM, 48 h) Jurkat
Structure (SMILES),"viability at 50 µM ([1]; A549, 48 h)","viability at 50 µM (A549 cells; A549 cells, 50 uM, 48 h, CCK-8)",viability at 50 µM (Jurkat cells; [2]),viability at 50 µM [1],viability at 50 µM (A549 cells),"viability at 50 µM (Jurkat cells; read-out: % Viability (50 uM, 48 h) Jurkat)"
"CC(C)(C)[C@]1(O)C[C@@H]2OC(=O)C[C@@]23C(=O)O[C@@H]2N(C[C@H]4CCCO4)C(=O)[C@H](OC(=O)c4ccccc4)[C@]213 [P-5, (3aS,5aS,8R,8aS,9R,10aS)-9-(tert-butyl)-9-hydroxy-2,4,7-trioxo-6-(((R)-tetrahydrofuran-2-yl)methyl) octahydro-4H,9H-furo [3″,2″:2′,3′]cyclopenta [1′,2′:3,4]furo[2,3-b]pyrrol-8-yl benzoate]",87.2%,98.7%,75.7%,,,
"COc1ccccc1N1C(=O)[C@H](OC(=O)c2ccccc2)[C@@]23[C@@H]1OC(=O)[C@@]21CC(=O)O[C@H]1C[C@@]3(O)C(C)(C)C [JW095, (3aS,5aS,8R,9R,10aS)-9-(tert-butyl)-9-hydroxy-6-(2-methoxyphenyl)-2,4,7-trioxodecahydrofuro [3″,2″:2′,3′]cyclopenta [1′,2′:3,4]furo [2,3-b]pyrrol-8-yl benzoate]",78.1%,87.2%,69%,,,
"CC(C)(C)[C@]1(O)C[C@@H]2OC(=O)C[C@@]23C(=O)O[C@@H]2N(CC4CC4)C(=O)[C@H](OC(=O)c4ccccc4)[C@]213 [DW189, (3aS,5aS,8R,8aS,9R,10aS)-9-(tert-butyl)-6-(cyclopropylmethyl)-9-hydroxy-2,4,7-trioxooctahydro-4H,9H-furo [3″,2″:2′,3′]cyclopenta [1′,2′:3,4]furo[2,3-b]pyrrol-8-yl benzoate]",101%,107%,95.3%,,,
C=C(C)[C@@]1(C)C[C@@H]2OC(=O)C[C@@]23C(=O)O[C@@H]2OC(=O)[C@H](OC(C)=O)[C@]213 [XBB-009],,,,105%,103%,107%
"Cc1c(CCN2C(=O)[C@H](OC(=O)c3ccccc3)[C@@]34[C@@H]2OC(=O)[C@@]32CC(=O)O[C@H]2C[C@@]4(O)C(C)(C)C)[nH]c2ccccc12 [XBB-029, (3aS,5aS,8R,8aS,9R,10aS)-9-(tert-butyl)-9-hydroxy-6-(2-(3-methyl-1H-indol-2-yl)ethyl)-2,4,7-trioxooctahydro-4H,9H-furo [3″,2″:2′,3′]cyclopenta[1′,2′:3,4]furo[2,3-b]pyrrol-8-yl benzoate]",94.8%,96.1%,93.4%,,,
"CC(C)(C)[C@]1(O)C[C@@H]2OC(=O)C[C@@]23C(=O)O[C@@H]2N(CC4CCC4)C(=O)[C@H](OC(=O)c4ccccc4)[C@]213 [DW184, (3aS,5aS,8R,8aS,9R,10aS)-9-(tert-butyl)-6-(cyclobutylmethyl)-9-hydroxy-2,4,7-trioxooctahydro-4H,9H-furo [3″,2″:2′,3′]cyclopenta [1′,2′:3,4]furo [2,3-b]pyrrol-8-yl benzoate]",81.1%,93.5%,68.7%,,,
"CC(C)(C)[C@]1(O)C[C@@H]2OC(=O)C[C@@]23C(=O)O[C@@H]2N(c4ccc(C#N)cc4)C(=O)[C@H](OC(=O)c4ccccc4)[C@]213 [JW107, (3aS,5aS,8R,9R,10aS)-9-(tert-butyl)-6-(4-cyanophenyl)-9-hydroxy-2,4,7-trioxodecahydrofuro [3″,2″:2′,3′]cyclopenta [1′,2′:3,4]furo [2,3-b]pyrrol-8-yl benzoate]",72.7%,75.2%,70.2%,,,
CC(C)(C)[C@]1(O)C[C@@H]2OC(=O)C[C@@]23C(=O)O[C@@H]2N(c4cccc5c4OCO5)C(=O)[C@H](OC(=O)c4ccccc4)[C@]213 [XBB-068],97.5%,93.6%,101%,,,
"Cc1ccccc1N1C(=O)[C@H](OC(=O)c2ccccc2)[C@@]23[C@@H]1OC(=O)[C@@]21CC(=O)O[C@H]1C[C@@]3(O)C(C)(C)C [P-34, (3aS,5aS,8R,9R,10aS)-9-(tert-butyl)-9-hydroxy-2,4,7-trioxo-6-(2-methylphenyl)octahydro-4H,9H-furo [3″,2″:2′,3′]cyclopenta [1′,2′:3,4]furo [2,3-b]pyrrol-8-yl benzoate]",77%,80.2%,73.8%,,,
